This is an account of results in PubChem BioAssay (NCI).

Common to all, as to assay: inhibition of tumour cell growth, NCI panel, 48 h
Assay [1] has as its system SK-OV-3 ovarian.
Assay [2] deals with TK-10 renal.
For assay [3], the system named is SK-MEL-28 melanoma.
Assay [4] has as its system SW-620 colon.
The test system of assay [5] is NCI-H23 lung.
Assay [6] relates to OVCAR-3 ovarian.
In assay [7] the test system is MOLT-4 leukemia.
Assay [8] relates to OVCAR-5 ovarian.
The subject of assay [9] is MALME-3M melanoma.
The test system of assay [10] is SNB-19 CNS.

Several values for one entry are separate records, joined by “and”; a condition that tells them apart may be missing. Equal values may be shown once.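 96-well plates; 48 h exposure; 5 concentrations. Endpoints by linear interpolation between flanking doses. Not reached: highest tested concentration assigned. GI50 is the concentration that inhibits growth by half. Definition used: TGI = concentration required for complete inhibition of growth.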

Regarding `CC(=O)NNc1ncc(C(=O)/C=C/c2ccccc2C)s1`, the TGI in assay [1], in assay [2], in assay [3], in assay [4], in assay [5] and in assay [6] was greater than 100 µM each time. For the same compound, the TGI in assay [7], in assay [8], in assay [9] and in assay [10] was greater than 100 µM throughout.
On to `OCC1CC2C=CCC(C2)C1` (stereo unspecified), for which the TGI in assay [1], in assay [2], in assay [3], in [4], in [5] and in assay [6] was greater than 100 µM in each case. The TGI in assay [7], in assay [8], in [9] and in [10] was greater than 100 µM in each case.
For the compound `O=C(Nc1ccc(Cl)cc1)c1cc(NCc2cc(O)ccc2O)ccc1O`, the GI50 in assay [1] is 25 µM; in assay [2] it was 11.1 µM; in assay [3] it was 10.1 µM; in assay [4] it was 4.14 µM; in [5], 11.8 µM; in assay [6] it was 2.9 µM. Moreover, the GI50 is 3.28 µM in assay [7], 4.77 µM in [8], 4.34 µM in assay [9] and 8.33 µM in [10]. For the same compound, the TGI in [1] is 60.7 µM; in [2], 23.6 µM; in [3] it was 22.4 µM; in [4], 22.8 µM; in [5], 31.4 µM; in [6], 9.9 µM. For the same compound, the TGI in assay [7] was 32.9 µM; in assay [8], 19 µM; in [9], 16.8 µM; in [10], 21.2 µM.
For the compound `O=C1CC=C2C3CC4N(CCC45c4ccccc4N1C25)C/C3=C\CO` (stereo unspecified), the TGI in assay [1], in [2], in assay [3], in assay [4], in [5] and in [6] was greater than 100 µM each time. Besides, the TGI in assay [7], in assay [8], in assay [9] and in assay [10] was greater than 100 µM in each case.
For `O=[N+]([O-])c1cc(I)cc(/C=N/NS(=O)(=O)c2ccc(F)cc2)c1O`, the TGI in assay [1] is 70.2 µM; in assay [2], 77.7 µM; in assay [3] it was 81.6 µM; in [4], greater than 100 µM; in assay [5] it was 38.9 µM; in assay [6] it was 38.6 µM. Besides, the TGI in [7] is 57.7 µM; in [8], greater than 100 µM; in [9], 52.4 µM; in assay [10] it was greater than 100 µM.
In the case of `COc1ccc2c(c1)C(=O)/C(=C/c1ccc(O)cc1)O2`, the GI50 in assay [1] was 52.7 µM; in [2], 15 µM; in [3] it was 14.3 µM; in assay [4] it was 3.34 µM; in assay [5], 13.9 µM; in assay [6], 2.28 µM. For the same compound, the GI50 in assay [7] is 2.38 µM; in assay [8] it was 19.2 µM; in [9], 5.47 µM; in assay [10] it was 43 µM. The TGI in [1] is greater than 100 µM; in [2], 31 µM; in assay [3], 29.6 µM; in assay [4], 8.99 µM; in assay [5], 34.4 µM; in [6], 5.29 µM. For the same compound, the TGI in assay [7] is 6.06 µM; in assay [8] it was 38.5 µM; in [9] it was 13.2 µM; in [10], greater than 100 µM.
For the compound `CCCCCCCC(=O)Nc1nc2[nH]c(CN3CCN(Cc4cccc(I)c4)CC3)c(CN3CCN(Cc4cccc(I)c4)CC3)c2c(=O)[nH]1`, the GI50 in [1] was 0.916 µM; in assay [2], 0.828 µM; in [3] it was 0.937 µM; in assay [4], 0.848 µM; in [5], 0.92 µM; in [6] it was 0.879 µM. In addition, the GI50 in assay [7] is 0.934 µM; in [8], 0.852 µM; in assay [9], 0.866 µM; in assay [10] it was 0.858 µM. Also, the TGI in [1] came to 1.7 µM; in assay [2], 1.62 µM; in assay [3], 1.7 µM; in assay [4], 1.63 µM; in [5] it was 1.86 µM; in assay [6], 1.62 µM. For the same compound, the TGI came to 2.59 µM in assay [7], 1.57 µM in assay [8], 1.7 µM in [9] and 1.62 µM in [10].
With `COC(=O)C(/C(=N/N)C(=O)Nc1cc(Cl)ccc1Cl)c1nc2ccc([N+](=O)[O-])cc2[nH]c1=O` (stereo unspecified), the TGI in assay [1], in [2], in assay [3], in [4], in [5] and in assay [6] was greater than 100 µM in each case. The TGI in [7], in [8], in [9] and in assay [10] was greater than 100 µM in each case.
Take `CN1C(c2ccccc2)CC(=NO)CC1c1ccccc1` (stereo unspecified): the TGI was greater than 100 µM in assay [1]; greater than 100 µM in assay [2]; greater than 100 µM in assay [3]; greater than 100 µM in assay [4]; greater than 100 µM in assay [5]; > 100 µM and 77.3 µM in [6]. Further, the TGI in assay [7] was 62.2 µM and 69.3 µM; in [8], greater than 100 µM; in assay [9] it was greater than 100 µM; in assay [10], greater than 100 µM. Further, the GI50 in [2] was 66.5 µM; in assay [4], 43 µM; in assay [6], 24.9 µM; in assay [7], 23 µM.
Regarding `OC(c1cc2ccccc2[nH]1)C(O)(c1cc2ccccc2[nH]1)c1cc2ccccc2[nH]1` (stereo unspecified), the TGI in [1] stood at 79.1 µM; in assay [2] it was 90.3 µM; in assay [3] it was 55.1 µM; in assay [4], 43.1 µM; in [5] it was 21 µM; in assay [6], 9.13 µM. Besides, the TGI in [7] was greater than 245 µM; in assay [8], 102 µM; in assay [9], 59.7 µM; in assay [10] it was greater than 245 µM.
Regarding `CCOc1ccc(Nc2ccnc3cc(Cl)ccc23)cc1`, the GI50 in assay [1], in assay [2], in [3], in [4], in assay [5] and in [6] was greater than 100 µM each time. The GI50 in [7] was greater than 100 µM; in [8], 8.02 µM; in assay [9] it was greater than 100 µM; in [10], greater than 100 µM. For the same compound, the TGI in [1], in assay [2], in assay [3], in [4], in assay [5] and in [6] was greater than 100 µM each time. Further, the TGI in assay [7], in assay [8], in [9] and in assay [10] was greater than 100 µM in each case.
In the case of `O=c1oc2ccc(F)cc2c(=O)n1-c1ccc(I)cc1F`, the GI50 was 0.522 µM in assay [1]; 1.06 µM in assay [2]; 0.392 µM in assay [3]; 0.584 µM in assay [4]; 0.311 µM in assay [5]; 0.37 µM in assay [6]. In addition, the GI50 in [7] is 1.07 µM; in assay [8], 3.4 µM; in assay [9] it was 0.305 µM; in assay [10] it was 0.409 µM. Further, the TGI in assay [1] turned out to be 10.5 µM; in assay [2], 17.5 µM; in assay [3], 1.89 µM; in [4], 13.3 µM; in assay [5], 1.59 µM; in assay [6] it was 6.36 µM. For the same compound, the TGI in assay [7] was 3.65 µM; in assay [8], greater than 54.5 µM; in [9], 1.17 µM; in assay [10], greater than 54.3 µM.
As to `COC(=O)CCCCCOS(=O)(=O)c1ccc(C)cc1`, the TGI in assay [1], in assay [2], in assay [3], in [4], in assay [5] and in [6] was greater than 100 µM each time. Besides, the TGI in assay [7], in assay [8], in assay [9] and in assay [10] was greater than 100 µM throughout.
Turning to `COc1cc(OCCCN2CCCC2)ccc1Nc1ncc(Cl)c(Nc2ccccc2P(C)(C)=O)n1`, the GI50 is 2.3 µM in assay [1]; 0.983 µM in assay [2]; 6.34 µM in assay [3]; 1.37 µM in assay [4]; 1.98 µM in assay [5]; 2.75 µM in [6]. The GI50 is 3.95 µM in [7], 1.07 µM in assay [8], 6.06 µM in [9] and 4.11 µM in assay [10]. Also, the TGI in assay [1] was 6.41 µM; in assay [2] it was 4.91 µM; in assay [3] it was 26.6 µM; in assay [4], 5.36 µM; in [5] it was 13.2 µM; in assay [6], 12 µM. The TGI in [7] was 26 µM; in [8] it was 22.5 µM; in assay [9], 22.6 µM; in assay [10], 34.3 µM.
Turning to `Cc1ccc(NC(=O)CCc2nnc3s/c(=C\C=C\c4ccccc4)c(=O)n23)cc1`, the TGI was greater than 100 µM in assay [1]; greater than 100 µM in assay [2]; greater than 100 µM in assay [3]; greater than 100 µM in [4]; greater than 100 µM in assay [5]; greater than 87.2 µM in assay [6]. Moreover, the TGI in [7] was 79.8 µM; in [8] it was greater than 100 µM; in assay [9], greater than 100 µM; in assay [10] it was greater than 100 µM.
Consider `CC1=NC(C)=C(/C(C)=N/NC(=O)c2ccccc2O)C(C)/C1=C(/C)NNC(=O)c1ccccc1O` (stereo unspecified), for which the TGI in assay [1] was greater than 100 µM; in assay [2] it was 98.8 µM; in assay [3] it was greater than 100 µM; in [4], greater than 100 µM; in [5], 26.9 µM; in assay [6], 66.7 µM. Further, the TGI in assay [7] is 23.8 µM; in [8], 92.1 µM; in [9], 80.8 µM; in assay [10] it was greater than 100 µM.
Consider `N#Cc1c(N)c(C(=O)c2ccc3c(c2)OCCO3)n2c1CCCC2`, for which the GI50 in assay [1] is 5.47 µM; in [2] it was greater than 28.5 µM; in [3] it was 4.5 µM; in assay [4], 2.07 µM; in assay [5] it was 4.64 µM; in assay [6], 2.88 µM. The GI50 in assay [7] was 4.19 µM; in assay [8], 8.82 µM; in [9] it was 2.6 µM; in assay [10] it was 6.3 µM. For the same compound, the TGI is greater than 38.3 µM in assay [1]; greater than 100 µM in assay [2]; greater than 100 µM in [3]; greater than 100 µM in [4]; greater than 100 µM in assay [5]; greater than 28.3 µM in assay [6]. The TGI in assay [7], in assay [8], in assay [9] and in assay [10] was greater than 100 µM each time.
For the compound `COc1ccc2c(c1)/C(=C\c1c(-c3ccccc3)nc3sccn13)C(=O)N2`, the TGI in [1] was greater than 65.8 µM; in assay [2], greater than 72.9 µM; in [3] it was 21.9 µM; in assay [4], greater than 49.6 µM; in assay [5] it was 6.85 µM; in assay [6], 0.444 µM. Moreover, the TGI in [7] is greater than 44.5 µM; in assay [8] it was 40.4 µM; in assay [9], 97.1 µM; in [10], greater than 58.3 µM. Moreover, the GI50 in [2] was greater than 23.4 µM; in [3] it was 2.61 µM; in [5], 1.97 µM; in assay [6], 0.122 µM; in [7] it was 12.5 µM; in assay [8] it was 5.13 µM. Further, the figures for the GI50 in [9] and in assay [10] were 39.7 µM and greater than 21.5 µM, respectively.
For `C=CCN=C1NC(=O)C(CC(=O)Nc2cccc(Cl)c2)S1` (stereo unspecified), the TGI in [1], in assay [2], in assay [3], in assay [4], in [5] and in assay [6] was greater than 100 µM each time. Besides, the TGI in assay [7], in [8], in [9] and in [10] was greater than 100 µM in each case.
Take `CC(=O)N(N=O)c1ccc(N(N=O)C(C)=O)cc1`: the TGI in [1], in assay [3], in assay [4], in assay [5], in assay [6] and in assay [7] was greater than 100 µM in each case. Besides, the TGI in [8], in assay [9] and in assay [10] was greater than 100 µM each time.
